Measurements: publication PMC9661477, “New Dual P-Glycoprotein (P-gp) and Human Carbonic Anhydrase XII (hCA XII) Inhibitors as Multidrug Resistance (MDR) Reversers in Cancer Cells” (Journal of Medicinal Chemistry, 2022)
pKi: −log10 of the molar value. Read-outs that look alike come from different tables or passages of the source.

Tests used:
hCA I = hCA I (Homo sapiens, UniProt P00915); assay: stopped-flow CO2 hydrase assay, hCA I; conditions: read-out: Ki hCA I; stopped-flow technique, mean from three different assays
Chain of hCA I (P00915 whole entry): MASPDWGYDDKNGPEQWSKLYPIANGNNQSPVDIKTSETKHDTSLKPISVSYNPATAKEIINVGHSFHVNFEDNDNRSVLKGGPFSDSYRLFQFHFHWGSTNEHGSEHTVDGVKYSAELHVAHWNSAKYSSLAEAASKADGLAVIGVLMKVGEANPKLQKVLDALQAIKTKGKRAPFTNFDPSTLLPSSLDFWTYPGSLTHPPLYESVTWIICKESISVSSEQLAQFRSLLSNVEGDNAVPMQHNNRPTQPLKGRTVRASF
Text: (§1) An SX.18MV-R Applied Photophysics (Oxford, U.K.) stopped-flow instrument has been used to assay the catalytic/inhibition of various CA isozymes.[38] […] The inhibition constants were obtained by nonlinear least-squares methods using the Cheng–Prusoff equation, as reported earlier,[32] and represent the mean from at least three different determinations.

hCA II = hCA II (Homo sapiens, UniProt P00918); assay: stopped-flow CO2 hydrase assay, hCA II; conditions: read-out: Ki hCA II; stopped-flow technique, mean from three different assays
Text: as §1

hCA IX = hCA IX (Homo sapiens, UniProt Q16790); assay: stopped-flow CO2 hydrase assay, hCA IX
Text: as §1

[1] = read-out: Ki hCA IX, stopped-flow technique, mean from three different assays

## O=C(OCCCCCCN(CCCOC(=O)c1c2ccccc2cc2ccccc12)CCCOc1ccc2ccc(=O)oc2c1)c1c2ccccc2cc2ccccc12 [Compound 18, 3-((6-((Anthracene-9-carbonyl)oxy)hexyl)(3-((2-oxo-2H-chromen-7-yl)oxy)propyl)amino)propyl Anthracene-9-carboxylate]
hCA I
  pKi: < 5.00
hCA II
  pKi: < 5.00
hCA IX; [1]
  pKi: 6.78

## COc1cc(C(=O)OCCCCCCCN(CCCOC(=O)c2c3ccccc3cc3ccccc23)CCCOc2ccc3ccc(=O)oc3c2)cc(OC)c1OC [Compound 24, 3-((3-((2-Oxo-2H-chromen-7-yl)oxy)propyl)(7-((3,4,5-trimethoxybenzoyl)oxy)heptyl)amino)propyl Anthracene-9-carboxylate]
hCA I
  pKi: < 5.00
hCA II
  pKi: < 5.00
hCA IX; [1]
  pKi: 7.41

## COc1cc(/C=C/C(=O)OCCCN(CCCCCCOC(=O)c2c3ccccc3cc3ccccc23)CCCOc2ccc3ccc(=O)oc3c2)cc(OC)c1OC [Compound 16, (E)-6-((3-((2-Oxo-2H-chromen-7-yl)oxy)propyl)(3-((3-(3,4,5-trimethoxyphenyl)acryloyl)oxy)propyl)amino)hexyl Anthracene-9-carboxylate]
hCA I
  pKi: < 5.00
hCA II
  pKi: < 5.00
hCA IX; [1]
  pKi: 6.83

## COc1cc(/C=C/C(=O)OCCCCCCCN(CCCOC(=O)/C=C/c2cc(OC)c(OC)c(OC)c2)CCCOc2ccc3ccc(=O)oc3c2)cc(OC)c1OC [Compound 19, (E)-7-((3-((2-Oxo-2H-chromen-7-yl)oxy)propyl)(3-(((E)-3-(3,4,5-trimethoxyphenyl)acryloyl)oxy)propyl)amino)heptyl 3-(3,4,5-Trimethoxyphenyl)acrylate]
hCA I
  pKi: < 5.00
hCA II
  pKi: < 5.00
hCA IX; [1]
  pKi: 7.56

## COc1cc(/C=C/C(=O)OCCCCCN(CCCOC(=O)c2c3ccccc3cc3ccccc23)CCCOc2ccc3ccc(=O)oc3c2)cc(OC)c1OC [Compound 3, (E)-3-((3-((2-Oxo-2H-chromen-7-yl)oxy)propyl)(5-((3-(3,4,5-trimethoxyphenyl)acryloyl)oxy)pentyl)amino)propyl Anthracene-9-carboxylate]
hCA I
  pKi: < 5.00
hCA II
  pKi: < 5.00
hCA IX
  pKi: > 8.00
hCA IX; [1]
  pKi: 8.10

## COc1cc(/C=C/C(=O)OCCCN(CCCCCCCOC(=O)c2cc(OC)c(OC)c(OC)c2)CCCOc2ccc3ccc(=O)oc3c2)cc(OC)c1OC [Compound 22, (E)-7-((3-((2-Oxo-2H-chromen-7-yl)oxy)propyl)(3-((3-(3,4,5-trimethoxyphenyl)acryloyl)oxy)propyl)amino)heptyl 3,4,5-Trimethoxybenzoate]
hCA I
  pKi: < 5.00
hCA II
  pKi: < 5.00
hCA IX; [1]
  pKi: 7.36

## COc1cc(/C=C/C(=O)OCCCN(CCCCCOC(=O)c2c3ccccc3cc3ccccc23)CCCOc2ccc3ccc(=O)oc3c2)cc(OC)c1OC [Compound 7, (E)-5-((3-((2-Oxo-2H-chromen-7-yl)oxy)propyl)(3-((3-(3,4,5-trimethoxyphenyl)acryloyl)oxy)propyl)amino)pentyl Anthracene-9-carboxylate]
hCA I
  pKi: < 5.00
hCA II
  pKi: < 5.00
hCA IX; [1]
  pKi: 6.98

## COc1cc(C(=O)OCCCCCCCN(CCCOC(=O)c2cc(OC)c(OC)c(OC)c2)CCCOc2ccc3ccc(=O)oc3c2)cc(OC)c1OC [Compound 23, 7-((3-((2-Oxo-2H-chromen-7-yl)oxy)propyl)(3-((3,4,5-trimethoxybenzoyl)oxy)propyl)amino)heptyl 3,4,5-Trimethoxybenzoate]
hCA I
  pKi: < 5.00
hCA II
  pKi: < 5.00
hCA IX; [1]
  pKi: 7.74

## COc1cc(/C=C/C(=O)OCCCCCCCN(CCCOC(=O)c2cc(OC)c(OC)c(OC)c2)CCCOc2ccc3ccc(=O)oc3c2)cc(OC)c1OC [Compound 20, (E)-3-((3-((2-Oxo-2H-chromen-7-yl)oxy)propyl)(7-((3-(3,4,5-trimethoxyphenyl)acryloyl)oxy)heptyl)amino)propyl 3,4,5-Trimethoxybenzoate]
hCA I
  pKi: < 5.00
hCA II
  pKi: < 5.00
hCA IX
  pKi: > 8.00
hCA IX; [1]
  pKi: 8.28

## COc1cc(/C=C/C(=O)OCCCCCCN(CCCOC(=O)c2c3ccccc3cc3ccccc23)CCCOc2ccc3ccc(=O)oc3c2)cc(OC)c1OC [Compound 12, (E)-3-((3-((2-Oxo-2H-chromen-7-yl)oxy)propyl)(6-((3-(3,4,5-trimethoxyphenyl)acryloyl)oxy)hexyl)amino)propyl Anthracene-9-carboxylate]
hCA I
  pKi: < 5.00
hCA II
  pKi: < 5.00
hCA IX; [1]
  pKi: 7.57

## COc1cc(/C=C/C(=O)OCCCCCN(CCCOC(=O)c2cc(OC)c(OC)c(OC)c2)CCCOc2ccc3ccc(=O)oc3c2)cc(OC)c1OC [Compound 2, (E)-3-((3-((2-Oxo-2H-chromen-7-yl)oxy)propyl)(5-((3-(3,4,5-trimethoxyphenyl)acryloyl)oxy)pentyl)amino)propyl 3,4,5-Trimethoxybenzoate]
hCA I
  pKi: < 5.00
hCA II
  pKi: < 5.00
hCA IX; [1]
  pKi: 7.62

## COc1cc(/C=C/C(=O)OCCCN(CCCCCOC(=O)c2cc(OC)c(OC)c(OC)c2)CCCOc2ccc3ccc(=O)oc3c2)cc(OC)c1OC [Compound 4, (E)-5-((3-((2-Oxo-2H-chromen-7-yl)oxy)propyl)(3-((3-(3,4,5-trimethoxyphenyl)acryloyl)oxy)propyl)amino)pentyl 3,4,5-Trimethoxybenzoate]
hCA I
  pKi: < 5.00
hCA II
  pKi: < 5.00
hCA IX; [1]
  pKi: 7.23

## COc1cc(/C=C/C(=O)OCCCN(CCCCCCOC(=O)c2cc(OC)c(OC)c(OC)c2)CCCOc2ccc3ccc(=O)oc3c2)cc(OC)c1OC [Compound 13, (E)-6-((3-((2-Oxo-2H-chromen-7-yl)oxy)propyl)(3-((3-(3,4,5-trimethoxyphenyl)acryloyl)oxy)propyl)amino)hexyl 3,4,5-Trimethoxybenzoate]
hCA I
  pKi: < 5.00
hCA II
  pKi: < 5.00
hCA IX; [1]
  pKi: 7.14

## COc1cc(C(=O)OCCCN(CCCCCCCOC(=O)c2c3ccccc3cc3ccccc23)CCCOc2ccc3ccc(=O)oc3c2)cc(OC)c1OC [Compound 26, 7-((3-((2-Oxo-2H-chromen-7-yl)oxy)propyl)(3-((3,4,5-trimethoxybenzoyl)oxy)propyl)amino)heptyl Anthracene-9-carboxylate]
hCA I
  pKi: < 5.00
hCA II
  pKi: < 5.00
hCA IX; [1]
  pKi: 7.38

## COc1cc(/C=C/C(=O)OCCCCCCN(CCCOC(=O)c2cc(OC)c(OC)c(OC)c2)CCCOc2ccc3ccc(=O)oc3c2)cc(OC)c1OC [Compound 11, (E)-3-((3-((2-Oxo-2H-chromen-7-yl)oxy)propyl)(6-((3-(3,4,5-trimethoxyphenyl)acryloyl)oxy)hexyl)amino)propyl 3,4,5-Trimethoxybenzoate]
hCA I
  pKi: < 5.00
hCA II
  pKi: < 5.00
hCA IX; [1]
  pKi: 7.30

## COc1cc(C(=O)OCCCCCN(CCCOC(=O)c2c3ccccc3cc3ccccc23)CCCOc2ccc3ccc(=O)oc3c2)cc(OC)c1OC [Compound 6, 3-((3-((2-Oxo-2H-chromen-7-yl)oxy)propyl)(5-((3,4,5-trimethoxybenzoyl)oxy)pentyl)amino)propyl Anthracene-9-carboxylate]
hCA I
  pKi: < 5.00
hCA II
  pKi: < 5.00
hCA IX; [1]
  pKi: 7.44

## COc1cc(/C=C/C(=O)OCCCN(CCCCCCCOC(=O)c2c3ccccc3cc3ccccc23)CCCOc2ccc3ccc(=O)oc3c2)cc(OC)c1OC [Compound 25, (E)-7-((3-((2-Oxo-2H-chromen-7-yl)oxy)propyl)(3-((3-(3,4,5-trimethoxyphenyl)acryloyl)oxy)propyl)amino)heptyl Anthracene-9-carboxylate]
hCA I
  pKi: < 5.00
hCA II
  pKi: < 5.00
hCA IX; [1]
  pKi: 7.15

## COc1cc(C(=O)OCCCCCCN(CCCOC(=O)c2c3ccccc3cc3ccccc23)CCCOc2ccc3ccc(=O)oc3c2)cc(OC)c1OC [Compound 15, 3-((3-((2-Oxo-2H-chromen-7-yl)oxy)propyl)(6-((3,4,5-trimethoxybenzoyl)oxy)hexyl)amino)propyl Anthracene-9-carboxylate]
hCA I
  pKi: < 5.00
hCA II
  pKi: < 5.00
hCA IX; [1]
  pKi: 7.27

## COc1cc(/C=C/C(=O)OCCCCCCN(CCCOC(=O)/C=C/c2cc(OC)c(OC)c(OC)c2)CCCOc2ccc3ccc(=O)oc3c2)cc(OC)c1OC [Compound 10, (E)-6-((3-((2-Oxo-2H-chromen-7-yl)oxy)propyl)(3-(((E)-3-(3,4,5-trimethoxyphenyl)acryloyl)oxy)propyl)amino)hexyl 3-(3,4,5-Trimethoxyphenyl)acrylate]
hCA I
  pKi: < 5.00
hCA II
  pKi: < 5.00
hCA IX
  pKi: > 8.00
hCA IX; [1]
  pKi: 8.09

## COc1cc(/C=C/C(=O)OCCCCCCCN(CCCOC(=O)c2c3ccccc3cc3ccccc23)CCCOc2ccc3ccc(=O)oc3c2)cc(OC)c1OC [Compound 21, (E)-3-((3-((2-Oxo-2H-chromen-7-yl)oxy)propyl)(7-((3-(3,4,5-trimethoxyphenyl)acryloyl)oxy)heptyl)amino)propyl Anthracene-9-carboxylate]
hCA I
  pKi: < 5.00
hCA II
  pKi: < 5.00
hCA IX; [1]
  pKi: 7.85

## COc1cc(C(=O)OCCCN(CCCCCCOC(=O)c2c3ccccc3cc3ccccc23)CCCOc2ccc3ccc(=O)oc3c2)cc(OC)c1OC [Compound 17, 6-((3-((2-Oxo-2H-chromen-7-yl)oxy)propyl)(3-((3,4,5-trimethoxybenzoyl)oxy)propyl)amino)hexyl Anthracene-9-carboxylate]
hCA I
  pKi: < 5.00
hCA II
  pKi: < 5.00
hCA IX; [1]
  pKi: 6.91

## COc1cc(/C=C/C(=O)OCCCCCN(CCCOC(=O)/C=C/c2cc(OC)c(OC)c(OC)c2)CCCOc2ccc3ccc(=O)oc3c2)cc(OC)c1OC [Compound 1, (E)-5-((3-((2-Oxo-2H-chromen-7-yl)oxy)propyl)(3-(((E)-3-(3,4,5-trimethoxyphenyl)acryloyl)oxy)propyl)amino)pentyl 3-(3,4,5-Trimethoxyphenyl)acrylate]
hCA I
  pKi: < 5.00
hCA II
  pKi: < 5.00
hCA IX; [1]
  pKi: 7.40

## COc1cc(C(=O)OCCCN(CCCCCOC(=O)c2c3ccccc3cc3ccccc23)CCCOc2ccc3ccc(=O)oc3c2)cc(OC)c1OC [Compound 8, 5-((3-((2-Oxo-2H-chromen-7-yl)oxy)propyl)(3-((3,4,5-trimethoxybenzoyl)oxy)propyl)amino)pentyl Anthracene-9-carboxylate]
hCA I
  pKi: < 5.00
hCA II
  pKi: < 5.00
hCA IX; [1]
  pKi: 7.03
